Experimental findings from US20130137767A1, “Methods and Compositions for Treating Arthritis with Docosahexaenoic Acid” (DSM IP ASSETS B.V., priority 2010, published 2013) are described below.

Holding throughout (type): in vivo, Male DBA/1O1aHsd mice
The subject of one experiment is anti-collagen antibodies. The experiment is described as follows: CIA EE vs. TG (Example 2): serum anti-collagen antibodies. The following applies: for serum anti-collagen antibodies: day 21. The method, then: (§1) Male DBA/1O1aHsd mice were enrolled, quarantined, and feed study diets following the protocols described in Example 1 (CIA-EE Study). EE and TG oils were blended into the base diet to provide 2500 mg/kg PUFA per day (HED approximately 12 g/day). A single dose of PUFA per day (HED approximately 5 g/day). The 1000 mg/kg DHA-EE dose was equivalent to the amount of DHA administered in the DHA/EPA-EE blend. The fat blend the 2500 mg/kg EE diets consisted of approximately: 1 part flax, 12 parts HCOC and 23 parts HO-SAFF; 1000 mg/kg EE diet: 1 part flax, 12 parts HCOC and 32 parts HO-SAFF; 2500 mg/kg DHASCO® oil diet: 1 part flax, 8 parts HCOC, 17 parts HO-SAFF and 15 parts soybean oil; 2500 mg/kg DHA-S oil diet: 1 part flax, 5 parts HCOC, 16 parts HO-SAFF and 6 parts soybean oil. 2500 mg/kg DHA/EPA (Nordic Naturals fish oil) diet: 1 part flax, 21 parts HCOC, 18 parts HO-SAFF and 13 parts soybean oil. The monounsaturate control animals received a fat blend of 1 part flax, 7 parts HCOC and 25 parts HO-SAFF. All study diets provided a total of 7% fat. Animals in the No Disease control and Dexamethasone groups were fed the diet containing OA-EE. Mice received collagen injections on day 0 and day 21, as described previously. Blood samples were collected at day 21 and day 45. At day 45, joints were collected for histology and pathology.
A reduction in serum anti-collagen antibodies also correlated with a reduction in disease severity. […] (FIG. 12).

Experiment [1] relates to Collagen-Induced Arthritis (CIA). The experiment is described as follows: CIA EE vs. TG (Example 2): paw, knee and six-joint histopathology. The following applies: day 45. The method, then:
as §1, with “pathology. Placebo-treated diseased animals had histopathology changes, consistent with those seen in type II collagen induced arthritis, in most joints, with scores ranging from normal to severe. Microscopic alteration included infiltration of synovium and periarticular tissue with neutrophils and mononuclear inflammatory cells (inflammation), marginal zone pannus and bone resorption and cartilage damage (proteoglycan loss, chondrocyte death and collagen matrix destruction). Four-paw, knee and joint parameters were assigned a quantitative score 0=normal, 1=minimal, 2=mild, 3=moderate, 4=marked, 5=severe and a total score was determined per animal.” for “pathology.”

The test system is the same in experiment [2]. The experiment can be described thus: CIA-EE (Example 1): paw, knee and six-joint histopathology. Conditions: day 45, vs OA-EE placebo, FIG. 4. The source says: Male DBA/1O1aHsd mice (3.5-4 weeks of age) were randomized by weight and enrolled in the study after a three day quarantine in which animals were fed the AlN-93G diet with a modified base fat: 1 part flax seed oil (flax), 9 parts hydrogenated coconut oil (HCOC) and 21 parts high-oleic safflower oil (HO-SAFF). 15 animals were enrolled per study group, with the exception of the No Disease control that had 4 animals. Study groups consisted of:
(§2) The appropriate ethyl esters were blended into the base diet to provide approximately 2500 and 5000 mg/kg polyunsaturated fatty acid (PUFA) per day. The human equivalent doses (HED) were approximately 12 g/day and 22 g/day, respectively. The 2500 mg/kg EE diets contained the following fat blend: 1 part flax, 12 parts HCOC and 23 parts HO-SAFF. The 5000 mg/kg EE diets contained a fat blend consisting of: 1 part flax, 5 parts HCOC and 20 parts HO-SAFF. All study diets provided a total of 7% fat. Animals were fed study diets for approximately 30 days prior to the first collagen injection at day 0 and remained on the diets until study termination (day 45). Animals in the No Disease control and Dexamethasone groups were fed the diet containing OA-EE. Following a second collagen injection on day 21, arthritis severity was scored daily. Blood samples were collected at day 21 and day 45. Joints, 6 per an animal, were collected for histology and pathology on day 45.
Placebo-treated diseased animals had histopathology changes, consistent with those seen in type II collagen induced arthritis, in most joints, with scores ranging from normal to severe. Microscopic alteration included infiltration of synovium and periarticular tissue with neutrophils and mononuclear inflammatory cells (inflammation), marginal zone pannus and bone resorption and cartilage damage (proteoglycan loss, chondrocyte death and collagen matrix destruction). Four-paw, knee and joint parameters were assigned a quantitative score 0=normal, 1=minimal, 2=mild, 3=moderate, 4=marked, 5=severe and a total score was determined per animal.

Experiment [3] in a line: CIA-EE (Example 1): serum phospholipid fatty acid levels by FAME analysis. On the procedure:
as §2
Serum phospholipid fatty acid levels were determined by FAME analysis (FIG. 5). Treatment with DHA-EE elevated serum DHA levels 3-4 fold, as compared the OA-EE (placebo) control, whereas DPAn6-EE elevated serum DPAn6 20-35 fold. Serum EPA levels were elevated when dosed with the DHA/EPA-EE blend 8-15 fold and 4-7 fold when dosed with DHA-EE, as compared to the OA-EE (placebo) control. […]

Each structure is given as a SMILES string.

`CC/C=C\C/C=C\C/C=C\C/C=C\C/C=C\C/C=C\CCC(=O)OCC` [DHA-EE]: the serum anti-collagen antibodies result in the experiment on anti-collagen antibodies (1000 mg/kg) is recorded as “significantly reduced”; in the experiment on anti-collagen antibodies (2500 mg/kg PUFA, FIG. 12), “significantly reduced”. Besides, the “serum anti-collagen antibody levels” value in the experiment on anti-collagen antibodies (day 45, 2500 mg/kg PUFA, FIG. 12) is on record as “significantly reduced”. In addition, the knee histopathology parameters entry in experiment [1] (1000 mg/kg) is “not significantly affected”; in experiment [2] (2500 mg/kg) it was “significantly reduced”. The paw histopathology parameters result in experiment [1] (1000 mg/kg) is recorded as “not significantly affected”. Further, the six-joint histopathology parameters entry in experiment [1] (1000 mg/kg) is “not significantly affected”; in experiment [1] (2500 mg/kg PUFA, FIG. 10), “significantly reduced towards normal”. Also, the “paw histopathology parameters (inflammation, pannus, cartilage damage, bone damage)” value in experiment [1] (2500 mg/kg PUFA, vs placebo control, FIG. 10) is “reduced”; in experiment [2] (2500 mg/kg) it was “significantly reduced”; in experiment [2] (5000 mg/kg) it was “reduced paw histopathology scores”. Also, the “six-joint mean histopathology parameters” value in experiment [2] (2500 mg/kg) and in experiment [2] (5000 mg/kg) was “significantly reduced” throughout. Also, the “serum ARA levels, decrease vs OA-EE (placebo) control” value in experiment [3] (2500 mg/kg) and in experiment [3] (5000 mg/kg) was “approximately 90%” in each case.
